Results from US20130005721A1, “INDOLIZINE INHIBITORS OF 5-LIPOXYGENASE” (PANMIRA PHARMACEUTICALS, LLC, priority 2009, published 2013).

Each compound was assayed on human leukocytes (LTB4 production, calcium ionophore stimulated) (assay: Human Leukocyte LTB4 Inhibition Assay). Details: LTB4 by ELISA, read-out: LTB4 HLA IC50.
Assay type: cell-based
Protocol: Human Leukocyte LTB4 Inhibition Assay
A non-limiting example of a human leukocyte inhibition assay is as follows; Blood was drawn from consenting human volunteers into heparanized tubes and 3% dextran 0.9% saline ⅓ rd volume added. After sedimentation of red blood cells a hypotonic lysis of remaining red blood cells was performed and leukocytes sedimented at 1200 rpm. The pellet was resuspended at 1.25×10^5 cells/ml and aliquoted into wells containing 1 μL 100% DMSO (vehicle) or 2.5 μL drug in 100% DMSO. Samples were incubated for 5 minutes at 37° C. and 2 μL calcium ionophore […] (from a 50 mM DMSO stock diluted just prior to the assay in Hanks balanced salt solution (Invitrogen)) to 1.25 mM) was added, solutions mixed and incubated for 30 minutes at 37° C. Samples were centrifuged at 1,200 rpm (−200×g) for 10 minutes at 4° C., plasma removed and a 1:4 dilution assayed for LTB4 concentration using ELISA (Assay Designs). Drug concentrations to achieve 50% inhibition (IC50's) of vehicle LTB4 were determined by nonlinear regression (Graphpad Prism) of % inhibition versus log drug concentration.

| IC50 [nM] | SMILES |
| --- | --- |
| < 300 | CCC(O)(c1nnc(NCc2ccn3c(-c4ccc(F)cc4)c(C(N)=O)cc3c2)o1)C(F)(F)F (single isomer, unassigned) [Compound 1-21, 3-(4-Fluoro-phenyl)-7-{[5-(1-hydroxy-1-trifluoromethyl-propyl)-[1,3,4]oxadiazol-2-ylamino]-methyl}-indolizine-2-carboxylic acid amide] |

Same assay, conditions: Leukocyte, LTB4 by ELISA, read-out: LTB4 HLA IC50

| IC50 [nM] | SMILES |
| --- | --- |
| > 1000 | CCNCc1cc2cc(Cn3cc(C(O)(CC)C(F)(F)F)nn3)ccn2c1-c1ccc(F)cc1 (stereo not drawn) [Compound 1-60, 2-{1-[2-Ethylaminomethyl-3-(4-fluoro-phenyl)-indolizin-7-ylmethyl]-1H-[1,2,3]triazol-4-yl}-1,1,1-trifluoro-butan-2-ol] |
| < 300 | CCC(O)(c1cn(Cc2ccn3c(-c4ccc(OC)nc4)c(C#N)cc3c2)nn1)C(F)(F)F (stereo not drawn) [Compound 1-57, 7-[4-(1-Hydroxy-1-trifluoromethyl-propyl)-[1,2,3]triazol-1-ylmethyl]-3-(6-methoxy-pyridin-3-yl)-indolizine-2-carbonitrile] |
| < 300 | CCC(O)(c1nnc(NCc2ccn3c(-c4ccc(F)cc4)c(C(N)=O)cc3c2)o1)C(F)(F)F (stereo not drawn) [Compound 1-19, 3-(4-Fluoro-phenyl)-7-{[5-(1-hydroxy-1-trifluoromethyl-propyl)-[1,3,4]oxadiazol-2-ylamino]-methyl}-indolizine-2-carboxylic acid amide] |
| 300 to 1000 | CCC(OC(=O)c1ccc([N+](=O)[O-])cc1)(c1cn(Cc2ccn3c(-c4ccc(OC)nc4)c(C(N)=O)cc3c2)nn1)C(F)(F)F (single isomer, unassigned) [Compound 1-83, 4-Nitro-benzoic acid 1-{1-[2-carbamoyl-3-(6-methoxy-pyridin-3-yl)-indolizin-7-ylmethyl]-1H-[1,2,3]triazol-4-yl}-1-trifluoromethyl-propyl ester] |
| < 300 | CCOC(=O)c1cc2cc(Cn3cc(C(O)(CC)C(F)(F)F)nn3)ccn2c1-c1ccc(F)cc1 (stereo not drawn) [Compound 1-4, 3-(4-Fluoro-phenyl)-7-[4-(1-hydroxy-1-trifluoromethyl-propyl)-[1,2,3]triazol-1-ylmethyl]-indolizine-2-carboxylic acid ethyl ester] |
| < 300 | CCC(O)(c1nnc(NCc2ccn3c(-c4ccc(F)cc4)c(C#N)c(Br)c3c2)o1)C(F)(F)F (stereo not drawn) [Compound 1-18, 1-Bromo-3-(4-fluoro-phenyl)-7-{[5-(1-hydroxy-1-trifluoromethyl-propyl)-[1,3,4]oxadiazol-2-ylamino]-methyl}-indolizine-2-carbonitrile] |
| 300 to 1000 | CCNC(=O)c1cc2cc(Cn3cc(C(O)(CC)C(F)(F)F)nn3)ccn2c1-c1ccc(F)cc1 (stereo not drawn) [Compound 1-55, 3-(4-Fluoro-phenyl)-7-[4-(1-hydroxy-1-trifluoromethyl-propyl)-[1,2,3]triazol-1-ylmethyl]-indolizine-2-carboxylic acid ethylamide] |
| < 300 | CCC(O)(c1cn(Cc2ccn3c(-c4ccc(F)cc4)c(/C=C/C(N)=O)cc3c2)nn1)C(F)(F)F (stereo not drawn) [Compound 1-43, (E)-3-{3-(4-Fluoro-phenyl)-7-[4-(1-hydroxy-1-trifluoromethyl-propyl)-[1,2,3]triazol-1-ylmethyl]-indolizin-2-yl}-acrylamide] |
| < 300 | CCOC(=O)c1cc2cc(Cn3cc(C(O)(CC)C(F)(F)F)nn3)ccn2c1-c1cccc(S(C)(=O)=O)c1 (stereo not drawn) [Compound 1-47, 7-[4-(1-Hydroxy-1-trifluoromethyl-propyl)-[1,2,3]triazol-1-ylmethyl]-3-(3-methanesulfonyl-phenyl)-indolizine-2-carboxylic acid ethyl ester] |
| < 300 | CCOC(=O)c1nc2cc(CNc3nnc(C(O)(CC)C(F)(F)F)o3)ccn2c1-c1ccccc1 (stereo not drawn) [Compound 1-12, 7-{[5-(1-Hydroxy-1-trifluoromethyl-propyl)-[1,3,4]oxadiazol-2-ylamino]-methyl}-3-phenyl-imidazo[1,2-a]pyridine-2-carboxylic acid ethyl ester] |

Second part, the compound before the results:

| SMILES | IC50 [nM] |
| --- | --- |
| CCC(O)(c1cn(Cc2ccn3c(-c4ccc(F)cc4)c(C(N)=O)cc3c2)nn1)C(F)(F)F (single isomer, unassigned) [Compound 1-9, 3-(4-Fluoro-phenyl)-7-[4-(1-hydroxy-1-trifluoromethyl-propyl)-[1,2,3]triazol-1-ylmethyl]-indolizine-2-carboxylic acid amide] | < 300 |
| CCOC(=O)c1cc2cc(Cn3cc(C(O)(CC)C(F)(F)F)nn3)ccn2c1-c1cnc2ccccc2c1 (stereo not drawn) [Compound 1-52, 7-[4-(1-Hydroxy-1-trifluoromethyl-propyl) [1,2,3]triazol-1-ylmethyl]-3-quinolin-3-yl-indolizine-2-carboxylic acid ethyl ester] | < 300 |
| CCOC(=O)c1cc2cc(Cn3cc(C(O)(CC)C(F)(F)F)nn3)ccn2c1-c1cncnc1 (stereo not drawn) [Compound 1-73, 7-[4-(1-Hydroxy-1-trifluoromethyl-propyl)-[1,2,3]triazol-1-ylmethyl]-3-pyrimidin-5-yl-indolizine-2-carboxylic acid ethyl ester] | < 300 |
| CCC(O)(c1cnc(Sc2ccn3cc(C(=O)O)cc3c2)s1)C(F)(F)F (stereo not drawn) [Compound 1-2, 7-[5-(1-Hydroxy-1-trifluoromethyl-propyl)-thiazol-2-ylsulfanyl]-indolizine-2-carboxylic acid] | > 1000 |
| CCOC(=O)c1cc2cc(Cn3cc(C(O)(CC)C(F)(F)F)nn3)ccn2c1-c1ccnc(C)c1 (stereo not drawn) [Compound 1-63, 7-[4-(1-Hydroxy-1-trifluoromethyl-propyl)-[1,2,3]triazol-1-ylmethyl]-3-(2-methyl-pyridin-4-yl)-indolizine-2-carboxylic acid ethyl ester] | < 300 |
| CCC(OC)(c1cn(Cc2ccn3c(-c4ccc(F)cc4)c(COC)cc3c2)nn1)C(F)(F)F (stereo not drawn) [Compound 1-45, 3-(4-Fluoro-phenyl)-2-methoxymethyl-7-[4-(1-methoxy-1-trifluoromethyl-propyl)-[1,2,3]triazol-1-ylmethyl]-indolizine] | < 300 |
| CCC(O)(c1cn(Cc2ccn3c(-c4ccc(=O)n(C)c4)c(C#N)cc3c2)nn1)C(F)(F)F (stereo not drawn) [Compound 1-70, 7-[4-(1-Hydroxy-1-trifluoromethyl-propyl)-[1,2,3]triazol-1-ylmethyl]-3-(1-methyl-6-oxo-1,6-dihydro-pyridin-3-yl)-indolizine-2-carbonitrile] | > 1000 |
| CCC(OC(=O)c1ccc([N+](=O)[O-])cc1)(c1cn(Cc2ccn3c(-c4ccc(C)nc4)c(C(N)=O)cc3c2)nn1)C(F)(F)F (single isomer, unassigned) [Compound 1-75, 4-Nitro-benzoic acid 1-{1-[2-carbamoyl-3-(6-methyl-pyridin-3-yl)-indolizin-7-ylmethyl]-1H-[1,2,3]triazol-4-yl}-1-trifluoromethyl-propyl ester] | > 1000 |
| CCC(O)(c1cn(Cc2ccn3c(-c4ccc(F)cc4)c(C(=O)N(C)OC)cc3c2)nn1)C(F)(F)F (stereo not drawn) [Compound 1-51, 3-(4-Fluoro-phenyl)-7-[4-(1-hydroxy-1-trifluoromethyl-propyl)-[1,2,3]triazol-1-ylmethyl]-indolizine-2-carboxylic acid methoxy-methyl-amide] | < 300 |
| CCC(O)(c1cn(Cc2ccn3c(-c4ccnc(C)c4)c(C#N)cc3c2)nn1)C(F)(F)F (single isomer, unassigned) [Compound 1-80, 7-[4-(1-Hydroxy-1-trifluoromethyl-propyl)-[1,2,3]triazol-1-ylmethyl]-3-(2-methyl-pyridin-4-yl)-indolizine-2-carbonitrile] | < 300 |
